Measured values published in US20240158446A1, “CYCLIC COMPOUND HAVING SELECTIVE INHIBITORY ACTION ON KRAS OVER HRAS AND NRAS” (CHUGAI SEIYAKU KABUSHIKI KAISHA, priority 2021, published 2024).

Experiments:
[1] = target: GDP-bound NRAS wild-type protein (Homo sapiens, UniProt P01111); test: Binding to NRAS by surface plasmon resonance (SPR), Single Cycle Kinetics; details: SPR KD ratio NRAS/KRAS, class symbols
[2] = target: GDP-bound HRAS wild-type protein (Homo sapiens, UniProt P01112); test: Binding to HRAS by surface plasmon resonance (SPR), Single Cycle Kinetics; details: SPR KD ratio HRAS/KRAS, class symbols
Chain of GDP-bound HRAS wild-type protein (P01112 whole entry): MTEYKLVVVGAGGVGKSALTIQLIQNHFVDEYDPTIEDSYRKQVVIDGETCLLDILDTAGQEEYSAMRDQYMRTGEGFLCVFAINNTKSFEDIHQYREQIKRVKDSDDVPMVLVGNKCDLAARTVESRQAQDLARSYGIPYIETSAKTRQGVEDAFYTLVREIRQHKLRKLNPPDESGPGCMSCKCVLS

Chain of GDP-bound NRAS wild-type protein (P01111 whole entry): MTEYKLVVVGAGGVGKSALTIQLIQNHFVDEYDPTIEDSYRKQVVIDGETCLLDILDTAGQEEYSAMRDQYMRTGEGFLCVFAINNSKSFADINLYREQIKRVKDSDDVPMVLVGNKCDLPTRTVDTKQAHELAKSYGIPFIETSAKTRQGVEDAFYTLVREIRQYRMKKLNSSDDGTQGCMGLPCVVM

CCC[C@H]1C(=O)N[C@@H]([C@@H](C)CC)C(=O)N(C)CC(=O)N(C)[C@H]2C/C=C\CCN(C2=O)[C@@H](Cc2ccc(C)cc2)C(=O)N(C)CC(=O)N[C@@H](CCc2cc(F)c(C(F)(F)F)c(F)c2)C(=O)N2C[C@H](OCC)C[C@H]2C(=O)NC2(CC(C)(C)C2)C(=O)N(C)[C@@H](CC2CC2)C(=O)N(C)[C@H](C(=O)N(C)C)CC(=O)N1C [PP2797]
NRAS/KRAS (ratio of KD value with respect to GDP-bound NRAS wild-type protein to KD value with respect to KRAS) [1]: A (a compound having 10 or more and less than 20 is denoted as A)
HRAS/KRAS (ratio of KD value with respect to GDP-bound HRAS wild-type protein to KD value with respect to KRAS) [2]: A (a compound having 10 or more and less than 20 is denoted as A)

CCC[C@H]1C(=O)N[C@@H]([C@@H](C)CC)C(=O)N(C)CC(=O)N(C)[C@H]2C/C=C\CCN(C2=O)[C@@H](Cc2ccc(C)cc2)C(=O)N(C)CC(=O)N[C@@H](CCc2ccc(Cl)c(Cl)c2)C(=O)N2C[C@H](OCC)C[C@H]2C(=O)NC2(CC(C)(C)C2)C(=O)N(C)[C@@H](CC2CC2)C(=O)N(C)[C@H](C(=O)N(C)C)CC(=O)N1C [PP2799]
NRAS/KRAS (ratio of KD value with respect to GDP-bound NRAS wild-type protein to KD value with respect to KRAS) [1]: A (a compound having 10 or more and less than 20 is denoted as A)
HRAS/KRAS (ratio of KD value with respect to GDP-bound HRAS wild-type protein to KD value with respect to KRAS) [2]: A (a compound having 10 or more and less than 20 is denoted as A)

CC[C@H](C)[C@@H]1NC(=O)[C@H](CC2CC2)N(C)C(=O)C[C@@H](C(=O)N(C)CC)N(C)C(=O)[C@H](C2CCCC2)N(C)C(=O)C2(CC(C)(C)C2)NC(=O)[C@@H]2C[C@@H](F)CN2C(=O)[C@H](CCc2cc(F)c(C(F)(F)F)c(F)c2)NC(=O)CN(C)C(=O)[C@H](Cc2ccc(C)cc2)N2CC/C=C\C[C@@H](C2=O)N(C)C(=O)CN(C)C1=O [PP2802]
NRAS/KRAS (ratio of KD value with respect to GDP-bound NRAS wild-type protein to KD value with respect to KRAS) [1]: AA (a compound having 20 or more is denoted as AA)
HRAS/KRAS (ratio of KD value with respect to GDP-bound HRAS wild-type protein to KD value with respect to KRAS) [2]: A (a compound having 10 or more and less than 20 is denoted as A)

CCC[C@H]1C(=O)N[C@@H]([C@@H](C)CC)C(=O)N(C2CC2)CC(=O)N(C)[C@H]2C/C=C\CCN(C2=O)[C@@H](Cc2ccc(C)cc2)C(=O)N(C)CC(=O)N[C@@H](CCc2ccc(Cl)c(Cl)c2)C(=O)N2C[C@H](OCC)C[C@H]2C(=O)NC2(CC(C)(C)C2)C(=O)N(C)[C@@H](CC2CC2)C(=O)N(C)[C@H](C(=O)N(C)C)CC(=O)N1C [PP2805]
NRAS/KRAS (ratio of KD value with respect to GDP-bound NRAS wild-type protein to KD value with respect to KRAS) [1]: A (a compound having 10 or more and less than 20 is denoted as A)
HRAS/KRAS (ratio of KD value with respect to GDP-bound HRAS wild-type protein to KD value with respect to KRAS) [2]: A (a compound having 10 or more and less than 20 is denoted as A)

CCO[C@@H]1C[C@H]2C(=O)N(C)C3(CC(C)(C)C3)C(=O)N(C)[C@@H](C(CC)CC)C(=O)N(C)[C@H](C(=O)N(C)C)CC(=O)N(C)[C@@H](COC)C(=O)N[C@@H]([C@@H](C)CC)C(=O)N(C)CC(=O)N(C)[C@H]3C/C=C\CCN(C3=O)[C@@H](Cc3ccc(C)cc3)C(=O)N(C)CC(=O)N[C@@H](CCc3ccc(Cl)c(Cl)c3)C(=O)N2C1 [PP2810]
NRAS/KRAS (ratio of KD value with respect to GDP-bound NRAS wild-type protein to KD value with respect to KRAS) [1]: AA (a compound having 20 or more is denoted as AA)
HRAS/KRAS (ratio of KD value with respect to GDP-bound HRAS wild-type protein to KD value with respect to KRAS) [2]: A (a compound having 10 or more and less than 20 is denoted as A)

CCCO[C@@H]1C[C@H]2C(=O)N(C)C3(CC(C)(C)C3)C(=O)N(C)[C@@H](C(CC)CC)C(=O)N(C)[C@H](C(=O)N(C)C)CC(=O)N(C)[C@@H](COC)C(=O)N[C@@H]([C@@H](C)CC)C(=O)N(C)CC(=O)N(C)[C@H]3C/C=C\CCN(C3=O)[C@@H](Cc3ccc(C)cc3)C(=O)N(C)CC(=O)N[C@@H](CCc3ccc(Cl)c(Cl)c3)C(=O)N2C1 [PP2812]
NRAS/KRAS (ratio of KD value with respect to GDP-bound NRAS wild-type protein to KD value with respect to KRAS) [1]: AA (a compound having 20 or more is denoted as AA)
HRAS/KRAS (ratio of KD value with respect to GDP-bound HRAS wild-type protein to KD value with respect to KRAS) [2]: A (a compound having 10 or more and less than 20 is denoted as A)

CCC(CC)[C@H]1C(=O)N(C)[C@H](C(=O)N(C)C)CC(=O)N(C)[C@@H](COC)C(=O)N[C@@H]([C@@H](C)CC)C(=O)N(C)CC(=O)N(C)[C@H]2C/C=C\CCN(C2=O)[C@@H](Cc2ccc(C)cc2)C(=O)N(C)CC(=O)N[C@@H](CCc2ccc(Cl)c(Cl)c2)C(=O)N2C[C@H](OC(C)C)C[C@H]2C(=O)N(C)C2(CC(C)(C)C2)C(=O)N1C [PP2814]
NRAS/KRAS (ratio of KD value with respect to GDP-bound NRAS wild-type protein to KD value with respect to KRAS) [1]: AA (a compound having 20 or more is denoted as AA)
HRAS/KRAS (ratio of KD value with respect to GDP-bound HRAS wild-type protein to KD value with respect to KRAS) [2]: A (a compound having 10 or more and less than 20 is denoted as A)

CCO[C@@H]1C[C@H]2C(=O)NC3(CCC3)C(=O)N(C)[C@@H](C3CCCC3)C(=O)N(C)[C@H](C(=O)N(C)CC)CC(=O)N(C)[C@@H](CC3CCC3)C(=O)N[C@@H]([C@@H](C)CC)C(=O)N(C)CC(=O)N(C)[C@H]3C/C=C\CCN(C3=O)[C@@H](Cc3ccc(C(F)(F)F)cc3)C(=O)N(C)CC(=O)N[C@@H](CCc3ccc(Cl)c(Cl)c3)C(=O)N2C1 [PP2824]
NRAS/KRAS (ratio of KD value with respect to GDP-bound NRAS wild-type protein to KD value with respect to KRAS) [1]: A (a compound having 10 or more and less than 20 is denoted as A)
HRAS/KRAS (ratio of KD value with respect to GDP-bound HRAS wild-type protein to KD value with respect to KRAS) [2]: A (a compound having 10 or more and less than 20 is denoted as A)

CCCOC[C@H]1C(=O)N[C@@H]([C@@H](C)CC)C(=O)N(C)CC(=O)N(C)[C@H]2C/C=C\CCN(C2=O)[C@@H](Cc2ccc(C(F)(F)F)cc2)C(=O)N(C)CC(=O)N[C@@H](CCc2ccc(Cl)c(Cl)c2)C(=O)N2C[C@H](OCC)C[C@H]2C(=O)NC2(CCC2)C(=O)N(C)[C@@H](C2CCCC2)C(=O)N(C)[C@H](C(=O)N(C)CCC)CC(=O)N1C [PP2830]
NRAS/KRAS (ratio of KD value with respect to GDP-bound NRAS wild-type protein to KD value with respect to KRAS) [1]: A (a compound having 10 or more and less than 20 is denoted as A)
HRAS/KRAS (ratio of KD value with respect to GDP-bound HRAS wild-type protein to KD value with respect to KRAS) [2]: A (a compound having 10 or more and less than 20 is denoted as A)

CCCC[C@H]1C(=O)N[C@@H]([C@@H](C)CC)C(=O)N(C)CC(=O)N(C)[C@H]2C/C=C\CCN(C2=O)[C@@H](Cc2ccc(C(F)(F)F)cc2)C(=O)N(C)CC(=O)N[C@@H](CCc2ccc(C(F)(F)F)c(Cl)c2)C(=O)N2C[C@H](OCC)C[C@H]2C(=O)NC2(CCC2)C(=O)N(C)[C@@H](C2CCCC2)C(=O)N(C)[C@H](C(=O)N(C)CC)CC(=O)N1C [PP2841]
NRAS/KRAS (ratio of KD value with respect to GDP-bound NRAS wild-type protein to KD value with respect to KRAS) [1]: A (a compound having 10 or more and less than 20 is denoted as A)
HRAS/KRAS (ratio of KD value with respect to GDP-bound HRAS wild-type protein to KD value with respect to KRAS) [2]: A (a compound having 10 or more and less than 20 is denoted as A)

CCO[C@@H]1C[C@H]2C(=O)NC3(CCC3)C(=O)N(C)[C@@H](C3CCCC3)C(=O)N(C)[C@H](C(=O)N(C)CC)CC(=O)N(C)[C@@H](CC(C)C)C(=O)N[C@@H]([C@@H](C)CC)C(=O)N(C)CC(=O)N(C)[C@H]3C/C=C\CCN(C3=O)[C@@H](Cc3ccc(C(F)(F)F)cc3)C(=O)N(C)CC(=O)N[C@@H](CCc3ccc(Cl)c(Cl)c3)C(=O)N2C1 [PP2845]
NRAS/KRAS (ratio of KD value with respect to GDP-bound NRAS wild-type protein to KD value with respect to KRAS) [1]: AA (a compound having 20 or more is denoted as AA)
HRAS/KRAS (ratio of KD value with respect to GDP-bound HRAS wild-type protein to KD value with respect to KRAS) [2]: A (a compound having 10 or more and less than 20 is denoted as A)

CCO[C@@H]1C[C@H]2C(=O)NC3(CCC3)C(=O)N(C)[C@@H](C3CCCC3)C(=O)N(C)[C@H](C(=O)N(C)CC)CC(=O)N(C)[C@@H](CC(C)C)C(=O)N[C@@H]([C@@H](C)CC)C(=O)N(C)CC(=O)N(C)[C@H]3C/C=C\CCN(C3=O)[C@@H](Cc3ccc(C(F)(F)F)cc3)C(=O)N(C)CC(=O)N[C@@H](CCc3ccc(C(F)(F)F)c(Cl)c3)C(=O)N2C1 [PP2847]
NRAS/KRAS (ratio of KD value with respect to GDP-bound NRAS wild-type protein to KD value with respect to KRAS) [1]: A (a compound having 10 or more and less than 20 is denoted as A)
HRAS/KRAS (ratio of KD value with respect to GDP-bound HRAS wild-type protein to KD value with respect to KRAS) [2]: A (a compound having 10 or more and less than 20 is denoted as A)

CCC[C@H]1C(=O)N[C@@H]([C@@H](C)CC)C(=O)N(C)CC(=O)N(C)[C@H]2C/C=C\CCN(C2=O)[C@@H](Cc2ccc(C(F)(F)F)cc2)C(=O)N(C)CC(=O)N[C@@H](CCc2ccc(C(F)(F)F)c(C3CC3)c2)C(=O)N2C[C@H](OCC)C[C@H]2C(=O)NC2(CC(C)(C)C2)C(=O)N(C)[C@@H](C2CCCC2)C(=O)N(C)[C@H](C(=O)N(C)C)CC(=O)N1C [PP2852]
NRAS/KRAS (ratio of KD value with respect to GDP-bound NRAS wild-type protein to KD value with respect to KRAS) [1]: B (a compound having 3 or more and less than 10 is denoted as B)
HRAS/KRAS (ratio of KD value with respect to GDP-bound HRAS wild-type protein to KD value with respect to KRAS) [2]: B (a compound having 3 or more and less than 10 is denoted as B)

CCC[C@H]1C(=O)N[C@@H]([C@@H](C)CC)C(=O)N(C)CC(=O)N(C)[C@H]2C/C=C\CCN(C2=O)[C@@H](Cc2ccc(C(F)(F)F)cc2)C(=O)N(C)CC(=O)N[C@@H](CCc2ccc(C3CC3)c(OC)c2)C(=O)N2C[C@H](OCC)C[C@H]2C(=O)NC2(CC(C)(C)C2)C(=O)N(C)[C@@H](C2CCCC2)C(=O)N(C)[C@H](C(=O)N(C)C)CC(=O)N1C [PP2853]
NRAS/KRAS (ratio of KD value with respect to GDP-bound NRAS wild-type protein to KD value with respect to KRAS) [1]: A (a compound having 10 or more and less than 20 is denoted as A)
HRAS/KRAS (ratio of KD value with respect to GDP-bound HRAS wild-type protein to KD value with respect to KRAS) [2]: A (a compound having 10 or more and less than 20 is denoted as A)

CCC[C@H]1C(=O)N[C@@H]([C@@H](C)CC)C(=O)N(C)CC(=O)N(C)[C@H]2C/C=C\CCN(C2=O)[C@@H](Cc2ccc(C(F)(F)F)cc2)C(=O)N(C)CC(=O)N[C@@H](CCc2ccc(C3CC3)c(C)c2)C(=O)N2C[C@H](OCC)C[C@H]2C(=O)NC2(CC(C)(C)C2)C(=O)N(C)[C@@H](C2CCCC2)C(=O)N(C)[C@H](C(=O)N(C)C)CC(=O)N1C [PP2855]
NRAS/KRAS (ratio of KD value with respect to GDP-bound NRAS wild-type protein to KD value with respect to KRAS) [1]: A (a compound having 10 or more and less than 20 is denoted as A)
HRAS/KRAS (ratio of KD value with respect to GDP-bound HRAS wild-type protein to KD value with respect to KRAS) [2]: A (a compound having 10 or more and less than 20 is denoted as A)

CCC[C@H]1C(=O)N[C@@H]([C@@H](C)CC)C(=O)N(C)CC(=O)N(C)[C@H]2C/C=C\CCN(C2=O)[C@@H](Cc2ccc(C(F)(F)F)cc2)C(=O)N(C)CC(=O)N[C@@H](CCc2ccc(CC)c(F)c2)C(=O)N2C[C@H](OCC)C[C@H]2C(=O)NC2(CC(C)(C)C2)C(=O)N(C)[C@@H](C2CCCC2)C(=O)N(C)[C@H](C(=O)N(C)C)CC(=O)N1C [PP2856]
NRAS/KRAS (ratio of KD value with respect to GDP-bound NRAS wild-type protein to KD value with respect to KRAS) [1]: A (a compound having 10 or more and less than 20 is denoted as A)
HRAS/KRAS (ratio of KD value with respect to GDP-bound HRAS wild-type protein to KD value with respect to KRAS) [2]: A (a compound having 10 or more and less than 20 is denoted as A)
